Measurements: publication PMC11510433, “Exploration of the Solubility Hyperspace of Selected Active Pharmaceutical Ingredients in Choline- and Betaine-Based Deep Eutectic Solvents: Machine Learning Modeling and Experimental Validation” (Molecules, 2024)
Where two headings read alike, the source gives them in different places. Values belong to the compound of their own block, whether it stands above or below them.

Columns and labels:
[1] = parameters: method as in ref 2017-Zhong-10.1021acs.jced.7b00065; conditions: solvent 1-propanol, ref 2017-Zhong-10.1021acs.jced.7b00065, cited from earlier work
[2] = A:D 1:1, x*DES 1.0 (water 0.00), T 25.0 °C, ref 2024-Cysewski-10.3390molecules29102296, cited from earlier work
[3] = shake-flask solubility of sulfonamides in choline chloride- and betaine-based deep eutectic solvents (new measurements); format: physicochemical
Procedure: The solubility measurements were preceded by the determination of the calibration curves for the studied sulfonamides. Stock solutions of these compounds were prepared in methanol and subsequently diluted. The obtained series of solutions with decreasing concentrations were then measured spectrophotometrically using an A360 spectrophotometer from AOE Instruments (Shanghai, China) in the wavelength range of 200 nm to 500 nm. Their characteristic wavelengths were determined, and the corresponding absorbance values were plotted against the concentrations of the solutions. Three separate curves were prepared, and the obtained values were averaged. The calibration curves were validated in terms of their linearity, expressed by the determination coefficient R^2, as well as the limits of detection (LOD) and quantification (LOQ).
For determining the solubility of the studied sulfonamides in different eutectic compositions, a standard shake-flask procedure was applied.
The first step in this procedure involved the preparation of the deep eutectic solvents, which was performed by combining a hydrogen bond donor with a hydrogen bond acceptor. The HBA:HBD molar ratio was set to 1:2. […] The eutectics were prepared by weighing appropriate amounts of the two counterparts in glass vessels and heating them until a homogenous solution was obtained.
The samples of sulfonamides in DESs were prepared by adding an excess amount of the solute to the test tube, followed by an addition of the specific eutectic. The saturated solutions obtained in this manner were placed in an Orbital Shaker Incubator ES-20/60 from Biosan (Riga, Latvia) and heated at 25 °C, 30 °C, 35 °C, or 40 °C for 24 h with stirring at 60 rev/min. Before the measurements, the samples were filtered using a 0.22 µm pore-size PTFE syringe filter. The spectra of the filtered solutions were recorded after the dilution with methanol in the 200 nm–500 nm wavelength range with a 1 nm resolution. […] The absorbance values found at the characteristic wavelengths were used together with the linear regression equations to calculate the concentration of the considered solutes. Simultaneously, for the computation of the mole fraction solubility, the density of the samples was determined by weighing 1 mL of the sample on a RADWAG (Radom, Poland) AS 110 R2.PLUS analytical balance with 0.1 mg precision. Three separate samples were measured for each system, and the values were averaged.

[4] = parameters: method as in ref 2014-Delgado-10.1007s10953-014-0169-0; conditions: 1-Propanol + water, ref 2014-Delgado-10.1007s10953-014-0169-0, cited from earlier work
[5] = best-performing ChCl-TEG system, 1:2, 25 °C

SMILES: Cn1c(=O)c2c(ncn2C)n(C)c1=O [caffeine]
log(x1)exp ([1]; T 14.86 °C): -2.932
log(x1)exp ([1]; T 24.96 °C): -2.752
log(x1)exp ([1]; T 34.94 °C): -2.550

SMILES: CC(C)Cc1ccc(C(C)C(=O)O)cc1 (stereo not shown) [ibuprofen]
log(x1)exp ([2]; choline chloride + DEG): -0.616
log(x1)exp ([2]; choline chloride + P2D): -0.793
log(x1)exp ([2]; choline chloride + TEG): -0.580

Mole fraction solubility [3, 5]: 0.00124 mole fraction
SMILES: CCCN(CCC)S(=O)(=O)c1ccc(C(=O)O)cc1 [probenecid]

SMILES: Cc1cc(C)nc(NS(=O)(=O)c2ccc(N)cc2)n1 [sulfamethazine]
log(x1)exp ([4]; x2* 0.0322, x3* 0.97, T 20.00 °C): -4.226
log(x1)exp ([4]; x2* 0.0322, x3* 0.97, T 25.00 °C): -4.133
log(x1)exp ([4]; x2* 0.0322, x3* 0.97, T 30.00 °C): -4.044

Mole fraction solubility ([3]; DES BI-DEG, HBA:HBD 1:2, 25°C): 0.67(±0.09) mole fraction ∙10^4
Mole fraction solubility ([3]; DES BI-DEG, HBA:HBD 1:2, 30°C): 0.70(±0.08) mole fraction ∙10^4
Mole fraction solubility ([3]; DES BI-DEG, HBA:HBD 1:2, 35°C): 0.75(±0.06) mole fraction ∙10^4
Mole fraction solubility ([3]; DES BI-DEG, HBA:HBD 1:2, 40°C): 0.79(±0.05) mole fraction ∙10^4
Mole fraction solubility ([3]; DES BI-ETG, HBA:HBD 1:2, 25°C): 0.55(±0.07) mole fraction ∙10^4
Mole fraction solubility ([3]; DES BI-ETG, HBA:HBD 1:2, 30°C): 0.58(±0.02) mole fraction ∙10^4
Mole fraction solubility ([3]; DES BI-ETG, HBA:HBD 1:2, 35°C): 0.62(±0.06) mole fraction ∙10^4
Mole fraction solubility ([3]; DES BI-ETG, HBA:HBD 1:2, 40°C): 0.67(±0.08) mole fraction ∙10^4
Mole fraction solubility ([3]; DES BI-P2D, HBA:HBD 1:2, 25°C): 0.41(±0.06) mole fraction ∙10^4
Mole fraction solubility ([3]; DES BI-P2D, HBA:HBD 1:2, 30°C): 0.46(±0.10) mole fraction ∙10^4
Mole fraction solubility ([3]; DES BI-P2D, HBA:HBD 1:2, 35°C): 0.49(±0.08) mole fraction ∙10^4
Mole fraction solubility ([3]; DES BI-P2D, HBA:HBD 1:2, 40°C): 0.52(±0.04) mole fraction ∙10^4
Mole fraction solubility ([3]; DES BI-TEG, HBA:HBD 1:2, 25°C): 0.69(±0.04) mole fraction ∙10^4
Mole fraction solubility ([3]; DES BI-TEG, HBA:HBD 1:2, 30°C): 0.72(±0.02) mole fraction ∙10^4
Mole fraction solubility ([3]; DES BI-TEG, HBA:HBD 1:2, 35°C): 0.77(±0.09) mole fraction ∙10^4
Mole fraction solubility ([3]; DES BI-TEG, HBA:HBD 1:2, 40°C): 0.81(±0.07) mole fraction ∙10^4
Mole fraction solubility ([3]; DES ChCl-DEG, HBA:HBD 1:2, 25°C): 0.71(±0.09) mole fraction ∙10^4
Mole fraction solubility ([3]; DES ChCl-DEG, HBA:HBD 1:2, 30°C): 0.75(±0.07) mole fraction ∙10^4
Mole fraction solubility ([3]; DES ChCl-DEG, HBA:HBD 1:2, 35°C): 0.80(±0.14) mole fraction ∙10^4
Mole fraction solubility ([3]; DES ChCl-DEG, HBA:HBD 1:2, 40°C): 0.83(±0.02) mole fraction ∙10^4
Mole fraction solubility ([3]; DES ChCl-ETG, HBA:HBD 1:2, 25°C): 0.62(±0.09) mole fraction ∙10^4
Mole fraction solubility ([3]; DES ChCl-ETG, HBA:HBD 1:2, 30°C): 0.65(±0.01) mole fraction ∙10^4
Mole fraction solubility ([3]; DES ChCl-ETG, HBA:HBD 1:2, 35°C): 0.69(±0.06) mole fraction ∙10^4
Mole fraction solubility ([3]; DES ChCl-ETG, HBA:HBD 1:2, 40°C): 0.72(±0.08) mole fraction ∙10^4
Mole fraction solubility ([3]; DES ChCl-P2D, HBA:HBD 1:2, 25°C): 0.50(±0.08) mole fraction ∙10^4
Mole fraction solubility ([3]; DES ChCl-P2D, HBA:HBD 1:2, 30°C): 0.53(±0.03) mole fraction ∙10^4
Mole fraction solubility ([3]; DES ChCl-P2D, HBA:HBD 1:2, 35°C): 0.56(±0.07) mole fraction ∙10^4
Mole fraction solubility ([3]; DES ChCl-P2D, HBA:HBD 1:2, 40°C): 0.59(±0.01) mole fraction ∙10^4
Mole fraction solubility ([3]; DES ChCl-TEG, HBA:HBD 1:2, 25°C): 0.75(±0.05) mole fraction ∙10^4
Mole fraction solubility ([3]; DES ChCl-TEG, HBA:HBD 1:2, 30°C): 0.78(±0.07) mole fraction ∙10^4
Mole fraction solubility ([3]; DES ChCl-TEG, HBA:HBD 1:2, 35°C): 0.82(±0.01) mole fraction ∙10^4
Mole fraction solubility ([3]; DES ChCl-TEG, HBA:HBD 1:2, 40°C): 0.86(±0.02) mole fraction ∙10^4
Mole fraction solubility [3, 5]: 0.000075 mole fraction
SMILES: O=C(O)c1cc(/N=N/c2ccc(S(=O)(=O)Nc3ccccn3)cc2)ccc1O [sulfasalazine]
